≈ marks a conversion by molar mass, not a printed value. Where “and” joins values, the source holds several entries; their conditions need not be identical. Equal entries are not always repeated. Where two headings read alike, the source gives them in different places.
How the values were obtained:
MRS USA 300 = test: IC50, MIC and MBC against MRS USA 300; format: cell-based, Staphylococcus aureus
Protocol: (§1) As used herein, the term “minimum inhibitory concentration (MIC)” refers to the lowest concentration of an antimicrobial agent that will inhibit the visible growth of a microorganism after overnight incubation. MIC values against bacteria may be determined by standard methods. See also P. A. Wayne, Methods for Dilution Antimicrobial Tests for Bacteria that Grow Aerobically; Approved Standard, Ninth Edition, 2012, CLSI Document M07-A9, Vol. 32 No. 2, which is incorporated by reference herein in its entirety.

MRS 33591 [1] = test: IC50, MIC and MBC against MRS 33591; format: cell-based, Staphylococcus aureus
Protocol: as §1

S. aureus 29213 = test: IC50, MIC and MBC against S. aureus 29213; format: cell-based
Protocol: As used herein, the term “minimum inhibitory concentration (MIC)” refers to the lowest concentration of an antimicrobial agent that will inhibit the visible growth of a microorganism after overnight incubation. MIC values against bacteria may be determined by standard methods.

MRS USA 400 = test: IC50, MIC and MBC against MRS USA 400; format: cell-based, Staphylococcus aureus
Protocol: as §1

[2] = test system: MRS 1708 (Mupirocin-resistant); test: IC50, MIC and MBC against MRS 1708 (Mupirocin-resistant); format: cell-based, Staphylococcus aureus; design: AMC: unit not given here
Protocol: as §1

MRS 1708 = test: Growth inhibition of cannabinoid combinations, IC50s chosen for FICs, MRS 1708; format: cell-based; conditions: Staphylococcus aureus
Mupirocin-resistant MRS = format: cell-based, Staphylococcus aureus; conditions: in combination with Mupirocin
MRS 33591 [3] = test: Growth inhibition of cannabinoid combinations, IC50s chosen for FICs, MRS 33591; format: cell-based; conditions: Staphylococcus aureus
MRS 1717 = test: Growth inhibition of cannabinoid combinations, IC50s chosen for FICs, MRS 1717; format: cell-based; conditions: Staphylococcus aureus
MRS 1696 = test: Growth inhibition of cannabinoid combinations, IC50s chosen for FICs, MRS 1696; format: cell-based; conditions: Staphylococcus aureus
[4] = MRS USA 300, tested Conc. in μg/mL
[5] = MRS 33591, tested Conc. in μg/mL
[6] = S. aureus 29213, tested Conc. in μg/mL
[7] = MRS USA 400, tested Conc. in μg/mL
[8] = S. aureus 29213, tested Conc. in μg/mL, NA given without definition
[9] = Mupirocin-resistant MRS (Table 11)
[10] = Mupirocin-resistant MRS (Table 11), in µg/mL
[11] = read-out: IC50, Cannabidiol (CBD) + Cannabigerol (CBG)
[12] = read-out: IC50, Cannabidiol (CBD) + Cannabinol (CBN)
[13] = Staphylococcus aureus, S. aureus 29213, tested Conc. in μg/mL, read-out: MIC

## O=C(O)c1cn(C2CC2)c2cc(N3CCNCC3)c(F)cc2c1=O [Ciprofloxacin, reference compound]
MRS USA 300; [4]
  MBC: 0.67
  MIC: 0.5 ± 0
MRS USA 300; Staphylococcus aureus, USA300
  IC50: 0.13 µg/mL
MRS 33591 [1]; [5]
  MBC: 0.67
MRS 33591 [1]; Staphylococcus aureus
  IC50: 0.12 µg/mL
  MIC: 0.67 µg/mL
S. aureus 29213; [6]
  MBC: 0.67
S. aureus 29213; Staphylococcus aureus, 29213
  IC50: 0.12 µg/mL (≈ 0.362 µM)
  MIC: 0.5 µg/mL (≈ 1.51 µM)

## CCCCCc1cc(O)c(CCC(C)CCCC(C)C)c(O)c1 (centres unmarked) [Tetrahydro CBG, Tetrahydrocannabigerol]
MRS USA 300; MRS USA 300
  MBC: >62 µM
  MIC: 6.49 ± 2.25 µM (≈ 2.08 µg/mL)
MRS USA 300; MRS USA 300, read-out: IC50
  IC50: 2.56 ± 0.31 µM
MRS USA 300; [4]
  IC50: 0.82 ± 0.1
  MIC: 2.08
MRS USA 400; MRS USA 400
  MBC: 31.2 ± 0 µM (≈ 10 µg/mL)
  MIC: 7.8 ± 0 µM (≈ 2.5 µg/mL)
MRS USA 400; MRS USA 400, read-out: IC50
  IC50: 3.49 ± 0.5 µM
MRS USA 400; [7]
  IC50: 1.12
  MBC: 10 ± 0
  MIC: 2.5 ± 0
MRS 33591 [1]; MRS 33591
  MBC: 11.7 ± 5.52 µM (≈ 3.75 µg/mL)
  MIC: 3.9 ± 0 µM
MRS 33591 [1]; MRS 33591, read-out: IC50
  IC50: 2.09 µM
MRS 33591 [1]; [5]
  IC50: 0.67 ± 0
  MBC: 3.75
  MIC: 1.25 ± 0
S. aureus 29213; [6]
  MIC: 1.25 ± 0
S. aureus 29213; [8]
  IC50: 0.7
[2]; MRS 1708 (Mupirocin-resistant)
  MBC: 10.39 ± 4.49 µM (≈ 3.33 µg/mL)
  MIC: 5.21 ± 2.25 µM (≈ 1.67 µg/mL)
[2]; MRS 1708 (Mupirocin-resistant), read-out: IC50
  IC50: 2.59 ± 0.62 µM
[2]; [9]
  AMC: 3.33 ± 1.44
[2]; [10]
  IC50: 0.83 ± 0.2

## C=C(C)[C@@H]1CCC(C)=C[C@H]1c1c(O)cc(CCCCC)cc1O [CBD, Cannabidiol]
MRS 1708; read-out: IC50, Cannabidiol (CBD) + Cannabigerol (CBG), IC50 of first-named cannabinoid at the fixed ug/mL of the second given in the label
  IC50: 0.96 µg/mL
MRS 1708; read-out: IC50, Cannabidiol (CBD) + Cannabinol (CBN), IC50 of first-named cannabinoid at the fixed ug/mL of the second given in the label
  IC50: 1.06 µg/mL
Mupirocin-resistant MRS
  effect of combination with Mupirocin: no effect
MRS 33591 [3]; [11]
  IC50: 1.23 µg/mL
MRS 33591 [3]; [12]
  IC50: 1.28 µg/mL
MRS USA 300; [4]
  MBC: 3.33
  MIC: 1.67
MRS USA 300; Staphylococcus aureus, USA300
  IC50: 2.99 µM and 0.94 µg/mL
  MBC: 10.6 ± 4.58 µM (≈ 3.33 µg/mL)
  MIC: 5.31 ± 2.29 µM (≈ 1.67 µg/mL)
MRS 1717; [11]
  IC50: 0.864 µg/mL
MRS 1717; [12]
  IC50: 1.1 µg/mL
MRS USA 400; [7]
  MIC: 2.5 ± 0
MRS USA 400; Staphylococcus aureus, USA400
  IC50: 3.69 µM and 1.16 µg/mL
  MIC: 7.95 µM (≈ 2.5 µg/mL)
MRS 33591 [1]; Staphylococcus aureus
  IC50: 3.24 µM and 1.02 µg/mL
  MIC: 6.61 µM and 2.08 µg/mL
S. aureus 29213; Staphylococcus aureus, 29213
  IC50: 1.16 µg/mL (≈ 3.69 µM)
S. aureus 29213; [13]
  MIC: 2.08 µg/mL (≈ 6.61 µM)
[2]; Staphylococcus aureus
  IC50: 2.86 µM and 0.9 µg/mL
  MBC: 10.6 ± 4.58 µM (≈ 3.33 µg/mL)
  MIC: 5.31 ± 2.29 µM (≈ 1.67 µg/mL)
MRS 1696; [11]
  IC50: 1.28 µg/mL
MRS 1696; [12]
  IC50: 1.36 µg/mL

## C=C(C)[C@@H]1CC[C@](C)(O)[C@H]2Oc3cc(CCCCC)cc(O)c3[C@@H]12 [Cannabielsoin]
MRS USA 300; [4]
  IC50: 5.49
  MBC: 20 ± 0
  MIC: 10 ± 0
MRS USA 400; [7]
  IC50: 6.03
  MIC: 10 ± 0
MRS 33591 [1]; [5]
  IC50: 6.26
  MIC: 10 ± 0
S. aureus 29213; [6]
  MIC: 10 ± 0
S. aureus 29213; [8]
  IC50: 6.15
[2]; [9]
  AMC: 20 ± 0
[2]; [10]
  IC50: 6.03 ± 0.49

## Methyl tetrahydrocannabigerol
MRS USA 300; [4]
  IC50: 1.76 and 1.26
MRS USA 400; [7]
  IC50: 1.91 and 1.42
MRS 33591 [1]; [5]
  IC50: 1.83 and 1.39
S. aureus 29213; [6]
  MBC: 10 ± 0
S. aureus 29213; [8]
  IC50: 1.8 and 1.53
[2]; [9]
  AMC: 8.33 ± 2.89

## C/C(=C\C(=O)OCCCCCCCCC(=O)O)C[C@@H]1OC[C@H](C[C@@H]2O[C@H]2[C@@H](C)[C@H](C)O)[C@@H](O)[C@H]1O [Mupirocin, reference compound]
MRS USA 300; [4]
  MIC: 0.23
MRS USA 300; Staphylococcus aureus, USA300
  IC50: 80 nM and 0.04 µg/mL
  MBC: 3.76 ± 1.76 µM (≈ 1.88 µg/mL)
  MIC: 0.46 ± 0.22 µM (≈ 0.23 µg/mL)
MRS USA 400; [7]
  MBC: 0.94 ± 0.44
  MIC: 0.16 ± 0
MRS USA 400; Staphylococcus aureus, USA400
  IC50: 80 nM and 0.04 µg/mL
  MBC: 1.88 ± 0.88 µM (≈ 0.941 µg/mL)
  MIC: 0.32 µM (≈ 0.16 µg/mL)
MRS 33591 [1]; [5]
  MBC: 2.08
MRS 33591 [1]; Staphylococcus aureus
  IC50: 80 nM and 0.04 µg/mL
  MBC: 4.15 ± 2.6 µM (≈ 2.08 µg/mL)
  MIC: 0.44 µM and 0.22 µg/mL
S. aureus 29213; [6]
  MBC: 1.25 ± 0
S. aureus 29213; Staphylococcus aureus, 29213
  IC50: 0.04 µg/mL (≈ 0.0799 µM)
S. aureus 29213; [13]
  MIC: 0.39 µg/mL (≈ 0.779 µM)
[2]; Staphylococcus aureus
  IC50: > 100 µM
  MBC: > 100 µM
  MIC: > 100 µM

## CCCCCc1cc(O)c(C/C=C(\C)CCC=C(C)C)c(O)c1C(=O)O [Cannabigerolic acid]
MRS USA 300; [4]
  MIC: 8.33
MRS USA 300; Staphylococcus aureus, USA300
  IC50: 1.52 µg/mL
MRS USA 400; [7]
  MIC: 5 ± 0
MRS USA 400; Staphylococcus aureus, USA400
  IC50: 1.67 µg/mL
MRS 33591 [1]; Staphylococcus aureus
  IC50: 2.29 µg/mL
  MIC: 13.3 µg/mL
S. aureus 29213; Staphylococcus aureus, 29213
  IC50: 2.05 µg/mL (≈ 5.69 µM)
S. aureus 29213; [13]
  MIC: 8.33 µg/mL (≈ 23.1 µM)
[2]; Staphylococcus aureus
  IC50: 1.55 ± 0.27 µg/mL

## COc1cccc(OC)c1C(=O)N[C@@H]1C(=O)N2[C@@H]1SC(C)(C)[C@@H]2C(=O)O [Methicillin, reference compound]
MRS USA 300; Staphylococcus aureus, USA300
  IC50: 70.2 µM and 26.7 µg/mL
  MBC: > 131 µM
  MIC: > 131 µM
MRS USA 400; [7]
  MBC: 41.67
  MIC: 25 ± 0
MRS USA 400; Staphylococcus aureus, USA400
  IC50: 8.78 µM and 3.34 µg/mL
  MBC: 110 ± 37.9 µM (≈ 41.7 µg/mL)
  MIC: 65.7 µM (≈ 25 µg/mL)
MRS 33591 [1]; Staphylococcus aureus
  IC50: > 131 µM
  MBC: > 131 µM
  MIC: > 131 µM
S. aureus 29213; Staphylococcus aureus, 29213
  IC50: 0.65 µg/mL (≈ 1.71 µM)
  MIC: 2.6 ± 0.9 µg/mL (≈ 6.83 µM)
[2]; [9]
  AMC: 25 ± 0
[2]; Staphylococcus aureus
  IC50: 7.31 µM and 2.78 µg/mL
  MBC: 65.7 µM (≈ 25 µg/mL)
  MIC: 65.7 µM (≈ 25 µg/mL)

From patent US20210315837A1, “CANNABINOIDS FOR THE TREATMENT OF GRAM-POSITIVE INFECTIONS INCLUDING ANTIBIOTIC-RESISTANT BACTERIAL STRAINS” (priority 2018, published 2021)
